Data on 9 compounds can be found in patent US5118687A, “1-oxa-2-oxo-8-azaspiro(4,5)decane derivatives, pharmaceutical compositions containing them and process for preparing same” (Richter Gedeon Vegyeszeti Gyar Rt., priority 1989, dated 1992).

Where a name gives a salt, the structure may show the parent alone.

Experiment [1] concerns rat brain synaptosomal preparation. Nature of the experiment: Calcium uptake-inhibiting action: inhibition of potassium-stimulated 45Ca uptake in a rat brain synaptosomal preparation. The format is biochemical, rat (Wistar). The settings on record: rat brain cortex synaptosomes; 60 mM potassium chloride stimulation; 34° C.; incubation 20 seconds; pH 7.4; read-out: IC50 (50% inhibition of the stimulated 45Ca uptake). The source says: The calcium uptake-inhibiting action of the novel compounds of formula (I) was studied on a rat brain synaptosomal preparation by using the method of P. H. Wu et al. [J. Neurochem. 39, 700 (1982)].
Wistar rats weighting 180 to 200 g were decapitated, their brains were collected in an ice-cold physiological saline solution, the cortex was removed and purified from the white substance. The tissue was homogenized in 10 volumes of 0.32M sucrose solution by using a glass-teflon potter. After centrifuging the homogenate at a rate of 1000×g at 4° C. for 10 minutes, the supernatant was further centrifuged at 10000×g for 20 minutes. The sediment was taken up in a 0.32M sucrose solution in such a way that the protein content of the preparation was adjusted to 20 mg/ml.
The medium (containing 112 mM of sodium chloride, 5 mM of potassium chloride, 1.3 mM of magnesium chloride, 1.2 mM of sodium dihydrogen phosphate, 1.2 mM of calcium chloride, 10 mM of glucose, 20 mM of IRIS buffer) used for the incubation was saturated with carbogen, consisting of 95% by volume of oxygen and 5% by volume of carbon dioxide, up to a pH of 7.4. After adding the test substances to the medium, the synaptosomal preparation was added in an amount corresponding to 1 mg of protein. The incubation was carried out in a final volume of 1 ml. The samples were pre-incubated at 34° C. for 20 minutes. The calcium uptake was begun by using a ^45 Cacl2 solution of 75 nCi activity. Potassium chloride used for investigating the potassium-induced ^45 Ca uptake was employed in 60 mM concentration whereas sodium chloride was added in the same concentration to the control samples. The incubation lasted 20 seconds. The reaction was stopped by 5 ml of a stopping solution containing 120 mM of sodium chloride, 5 mM of potassium chloride, 5 mM of EGTA and 20 mM of TRIS at pH 7.4. The samples were filtered through a Whatman GF/C filter paper and twice washed with 5 ml of a washing solution each, containing 132 mM of sodium chloride, 5 mM of potassium chloride, 1.3 mM of magnesium chloride, 1.2 mM of calcium chloride and 20 mM of IRIS at pH 7.4. (Abbreviations used above: TRIS means tris(hydroxymethyl)aminomethane; EGTA means ethylene glycol bis(β-aminoethyl) ether-N,N,N',N'-tetraacetic acid).
The filter papers were put into glass cuvets, 10 ml of a scintillation liquid each were added, then the radioactivity of the samples was measured in an 1219 Rackbeta (LKB Wallace) liquid scintillation spectrophotometer.
The IC50 values obtained by examination of the concentration/effect correlations are shown in Table I. IC50 value means the molar concentration of the test compounds which causes 50% inhibition of the stimulated ^45 Ca uptake.

Experiment [2] deals with Male Hannover-Wistar rats. Nature of the experiment: Potassium cyanide test: protective effect against histotoxic hypoxia. The settings on record: Rattus norvegicus, po, read-out: ED50 p.o. (dose protecting half of the treated animals from the hypoxia). The format is in vivo, rat (Hannover-Wistar).
Experiment [3] relates to CFLP mice. Kind of experiment: Antihypoxic effect: asphyxial action in closed glass cylinder (method of Caillard et al.), survival time. The settings on record: 50 mg/kg oral, 60 minutes before test; n = 10; protected = surviving longer by 30% than average survival time of control group (23.5 ± 2.51 sec). The format is in vivo, mouse (CFLP). As to the method: The antiphypoxic effect was studied by using two methods. According to the method of C. Caillard et al. [Life Sci. 16, 1607 (1975)] the asphyxial action was determined after starvation for 16 hours on CFLP mice of both sexes weighting 24 to 26 g. Each animal was placed in a separate well-closed glass cylinder. The interval passing from closing the cylinder until the cessation of the last visible respiratory movement was registered as survival time. Animals, surviving longer by 30% than the average survival time of the control group, were considered to be protected. The test substances were administered in an oral dose of 50 mg/kg by 60 minutes before starting the examination.

As for `C=C1N(c2ccccc2)C(=O)OC12CCN(CCCC(c1ccc(F)cc1)c1ccc(F)cc1)CC2` [Compound 3, 1-Oxa-2-oxo-3-phenyl-4-methylene-8-[4,4-bis(4-fluorophenyl)butyl]-3,8-diazaspiro[4,5]decane], in experiment [1], the IC50 (usually the concentration that inhibits the measured activity by half) turned out to be 2.1 µM.

With `C=C1N(C2CCCCC2)C(=O)OC12CCN(CCCC(c1ccc(F)cc1)c1ccc(F)cc1)CC2` [Compound 4, 1-Oxa-2-oxo-3-cyclohexyl-4-methylene-8-[4,4-bis(4-fluorophenyl)butyl]-3,8-diazaspiro[4,5]decane], the ED50 (commonly the midpoint of the dose-response relation) in experiment [2] was 37.9 mg/kg. Moreover, the IC50 in experiment [1] stood at 5.3 µM.

In experiment [3], `CC1(O)N(C2CCCCC2)C(=O)OC12CCN(CCc1ccc(F)cc1)CC2` (stereo not drawn) [Compound 8, 1-Oxa-2-oxo-3-cyclohexyl-4-hydroxy-4-methyl-8-[2-(4-fluorophenyl)ethyl]-3,8-diazaspiro[4,5]decane] displayed a Protected animals of 60%.

`CN1C(=O)OC2(CCN(CCc3ccc(F)cc3)CC2)C1(C)O` (stereo not drawn) [Compound 6, 1-Oxa-2-oxo-3,4-dimethyl-4-hydroxy-8-[2-(4-fluorophenyl)ethyl]-3,8-diazaspiro[4,5]decane] displayed a Protected animals in experiment [3] of 60%.

Turning to `C=C1N(CCCC)C(=O)OC12CCN(CCCC(c1ccc(F)cc1)c1ccc(F)cc1)CC2` [Compound 1, 1-Oxa-2-oxo-3-butyl-4-methylene-8-[4,4-bis(4-fluorophenyl)butyl]-3,8-diazaspiro[4,5]decane], the ED50 in experiment [2] is 40.9 mg/kg. In experiment [1], the IC50 amounted to 5.8 µM.

Turning to `CCCCN1C(=O)OC2(CCN(CCCC(c3ccc(F)cc3)c3ccc(F)cc3)CC2)C1(C)O` (stereo not drawn) [Compound 5, 1-Oxa-2-oxo-3-butyl-4-hydroxy-4-methyl-8-[4,4-bis(4-fluorophenyl)butyl]-3,8-diazaspiro[4,5]decane hydrochloride], in experiment [1], the IC50 came to 6.1 µM.

Turning to `C=C1N(C(C)(C)C)C(=O)OC12CCN(CCCC(c1ccc(F)cc1)c1ccc(F)cc1)CC2` [Compound 2, 1-Oxa-2-oxo-3-tert-butyl-4-methylene-8-[4,4-bis(4-fluorophenyl)butyl]-3,8-diazaspiro[4,5]decane], the ED50 in experiment [2] came to 39.9 mg/kg. Also, the IC50 in experiment [1] stood at 5.9 µM.

Compound `CCCN1C(=O)OC2(CCN(CCc3ccc(F)cc3)CC2)C1(C)O` (stereo not drawn) [Compound 7, 1-Oxa-2-oxo-3-propyl-4-hydroxy-4-methyl-8-[2-(4-fluorophenyl)ethyl]-3,8-diazaspiro[4,5]decane] yielded a Protected animals in experiment [3] of 40%.

For `CCN1C(=O)OC2(CCN(CCc3ccc(F)cc3)CC2)C1(C)O` (stereo not drawn) [Compound 9, 1-Oxa-2-oxo-3-ethyl-4-hydroxy-4-methyl-8-[2-(4-fluorophenyl)ethyl]-3,8-diazaspiro[4,5]decane], in experiment [3], the Protected animals was 60%.
